Patent US12570638B2, “Fused imidazole derivatives as AHR antagonists” (Sail Biomedicines, Inc., priority 2020, dated 2026)

Assays:
[1] = Hepatocyte Stability Assay, rat; assay type: in vitro ADME; settings: cryopreserved hepatocytes, read-out: Rat hepatocyte clearance
Method: Preparation of working solutions: 10 mM stock solutions of test compound and positive control were prepared in DMSO. In separate conical tubes, the 10 mM solution of test compound and the positive control were diluted to 100 μM by combining 198 μL of 50% acetonitrile/50% water and 2 μL of 10 mM stock.
Preparation of Hepatocytes: Incubation medium (William's E Medium supplemented with GlutaMAX) and hepatocyte thawing medium were placed in a 37° C. water bath and allowed warming for at least 15 minutes prior to use. A vial of cryopreserved hepatocytes was transferred from storage, ensuring that vials remained at cryogenic temperatures until thawing process ensued. Cells were thawed by placing the vial in a 37° C. water bath and gently shaking the vials for 2 minutes. […] Using an AO/PI Staining, cells were counted and the viable cell density was determined. Cells with poor viability (<75% viability) were determined to be not acceptable for use. […]
Data Analysis: All calculations were carried out using Microsoft Excel. Peak areas were determined from extracted ion chromatograms. In vitro half-life (t1/2) of parent compound was determined by regression analysis of the percent parent disappearance vs. time curve.
The in vitro half-life (in vitro t1/2) was determined from the slope value: in vitro t1/2=0.693/k […]

[2] = Plasma Protein Binding Determination with Ultracentrifugation Method; assay type: in vitro ADME; settings: human plasma, read-out: Human plasma protein binding (% bound)
Method: The frozen plasma (stored at −80° C.) was thawed in a 37° C. water bath, followed by centrifugation at 3,220 g for 10 minutes to remove clots. The supernatant was removed into a new tube as the spun plasma. The spun plasma was pre-warmed in a 37° C. water bath for 10 minutes. The stock solutions of test compounds were diluted to 200 μM in DMSO, and then spiked into the plasma. Duplicate samples were prepared. The final concentration of compound was 1.0 μM. The final concentration of organic solvent was 0.5%. Warfarin was used as positive control in the assay. 1.0 mL of the spiked plasma was transferred to a new balance ultracentrifuge tube. Samples were incubated at 37° C., 5% CO2 for 30 minutes. After incubation, the balance ultracentrifuge tubes were centrifuged at 600,000 g for 5.5 hours at 37° C. […]
Data Analysis: All calculations were carried out using Microsoft Excel. The concentrations of test compound in plasma samples and post-ultracentrifugation plasma was determined from peak areas. The percentages of test compound bound was calculated as follows: […]

Cn1ncnc1C(=O)Nc1ccc2nc(-c3ccccc3C(F)(F)F)[nH]c2c1 [Compound H, 1-methyl-N-(2-(2-(trifluoromethyl)phenyl)-1H-benzo[d]imidazol-6-yl)-1H-1,2,4-triazole-5-carboxamide]
CLint scaled at 1 μM [1]: < 20 mL/min/kg | fraction unbound at 30 min, 1 μM [2]: < 0.25
